Counter-ions that a name gives are not always drawn.
Biological target: T1, Human Recombinant ROCK-II Enzyme (ROKα/ROCK-II, aa 11-552) (Homo sapiens, UniProt O75116)
T1 construct: (ROKα/ROCK-II, (aa 11-552), human active); purchased Upstate Biotechnology Co., Lake Placid, N.Y. 14-451
Test: ROCK-II inhibition, fluorescence polarization assay (IMAP ROCK II kit)
Assay type: biochemical
Settings: substrate 200 nM, ATP 10 μM, 60 min at 23° C., read-out: Enzyme Inhibition Constants (IC50) against Human Recombinant ROCK-II Enzyme
Description: The ability of certain compounds of Formula (I) to inhibit rho kinase was evaluated by means of in vitro assays. Human recombinant Rho kinase (ROKα/ROCK-II, (aa 11-552), human active, catalog #14-451, Upstate Biotechnology Co., Lake Placid, N.Y.), MgCl2/ATP cocktail, and enzyme substrate (Upstate) are used.
The fluorescence polarization assays are performed using a Biomek 2000 Robotic Workstation (Beckman Instruments, Palo Alto, Calif.) in a 96-well plate format. The assays are performed utilizing the IMAP ROCK II kit (Molecular Devices, Sunnyvale, Calif.) as follows. Substrate and ATP concentrations used are 200 nM and 10 μM, respectively, while the enzyme concentration is 3.96×10^−3 units per well. The substrate, enzyme, and ATP dilutions are made with the reaction buffer provided by the vendor. Test compounds are diluted in 10:10 DMSO-ethanol (vol/vol). For the actual assays, the various components are added into black, clear bottom, 96-well plates (Costar, Corning, N.Y.) in a final volume of 20 μl per well. After the enzyme reaction (60 min at 23° C.), 60 μl of the binding solution (IMAP kit, provided by vendor) is added per well and incubated for an additional 30 minutes in the dark at 23° C. Fluorescence polarization of the reaction mixtures is then measured on the Analyst™ HT instrument (Molecular Devices, Sunnyvale, Calif.).
The data generated are then analyzed using a non-linear, iterative, sigmoidal-fit computer program purchased from IDBS (Emeryville, Calif.) and as previously described (Sharif et al., J. Pharmacol. Exp. Ther. 286:1094-1102, 1998; Sharif et al., J. Pharmacol. Expt. Ther. 293:321-328, 2000; Sharif et al., J. Ocular Pharmacol. Ther. 18:141-162, 2002a; Sharif et al., J. Pharmac. Pharmacol. 54:539-547, 2002b) to generate the inhibition constants for the test compounds.

T1 sequence (O75116 11-552): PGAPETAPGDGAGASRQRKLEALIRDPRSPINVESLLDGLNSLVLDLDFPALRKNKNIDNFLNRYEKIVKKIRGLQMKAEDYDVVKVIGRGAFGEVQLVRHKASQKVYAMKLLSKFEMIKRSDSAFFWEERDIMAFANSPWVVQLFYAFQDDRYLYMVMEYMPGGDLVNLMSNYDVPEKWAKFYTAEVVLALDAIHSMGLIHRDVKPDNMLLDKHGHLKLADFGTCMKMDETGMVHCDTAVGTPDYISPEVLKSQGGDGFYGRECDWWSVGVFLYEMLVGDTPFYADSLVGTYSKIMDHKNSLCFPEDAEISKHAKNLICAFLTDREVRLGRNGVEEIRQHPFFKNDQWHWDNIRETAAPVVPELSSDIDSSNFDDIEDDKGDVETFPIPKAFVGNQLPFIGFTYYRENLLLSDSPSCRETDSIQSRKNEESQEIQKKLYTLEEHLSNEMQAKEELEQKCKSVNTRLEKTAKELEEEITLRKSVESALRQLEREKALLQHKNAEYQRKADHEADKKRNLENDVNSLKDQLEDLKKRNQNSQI

SMILES | IC50
CN1CCCN(c2nc(-c3ccncc3)cnc2N)CC1 [Example 1, 3-(4-Methyl-1,4-diazepan-1-yl)-5-(pyridin-4-yl)pyrazin-2-amine] | 3 nM
Cc1cnccc1-c1cnc(N)c(N2CCCN(C)CC2)n1 [Example 2, 3-(4-Methyl-1,4-diazepan-1-yl)-5-(3-methylpyridin-4-yl)pyrazin-2-amine hydrochloride] | 58 nM
CN1CCCN(c2nc(-c3cc[nH]n3)cnc2N)CC1 [Example 3, 3-(4-Methyl-1,4-diazepan-1-yl)-5-(1H-pyrazol-3-yl)pyrazin-2-amine] | 2.8 nM
CN1CCCN(c2nc(-c3cccc4[nH]ncc34)cnc2N)CC1 [Example 5, 5-(1H-indazol-4-yl)-3-(4-methyl-1,4-diazepan-1-yl)pyrazin-2-amine dihydrochloride] | 25 nM
CN1CCCN(c2nc(-c3ccnc(N)c3)cnc2N)CC1 [Example 8, 5-(2-Aminopyridin-4-yl)-3-(4-methyl-1,4-diazepan-1-yl)pyrazin-2-amine trihydrochloride] | 53 nM
Nc1ncc(-c2ccncc2)nc1N(CCO)CCO [Example 9, 2,2′-(3-Amino-6-(pyridin-4-yl)pyrazin-2-ylazanediyl)diethanol] | 22 nM
Nc1ncc(-c2ccncc2)nc1N1CCCCC1 [Example 10, 3-(Piperidin-1-yl)-5-(pyridin-4-yl)pyrazin-2-amine] | 59 nM
Nc1ncc(-c2ccncc2)nc1N1CCC(CO)CC1 [Example 11, (1-(3-Amino-6-(pyridin-4-yl)pyrazin-2-yl)piperidin-4-yl)methanol] | 17 nM
Nc1ncc(-c2ccncc2)nc1N1CCC(O)CC1 [Example 12, 1-(3-Amino-6-(pyridin-4-yl)pyrazin-2-yl)piperidin-4-ol] | 6.9 nM
CN(C)C1CCN(c2nc(-c3ccncc3)cnc2N)CC1 [Example 13, 3-(4-(Dimethylamino)piperidin-1-yl)-5-(pyridin-4-yl)pyrazin-2-amine] | 6.4 nM
CN1CCC(Nc2nc(-c3ccncc3)cnc2N)CC1 [Example 14, N,N-(1-Methylpiperidin-4-yl)-6-(pyridin-4-yl)pyrazine-2,3-diamine] | 3.5 nM
CN1CCCC(Nc2nc(-c3ccncc3)cnc2N)C1 (centres unmarked) [Example 15, N,N-(1-Methylpiperidin-3-yl)-6-(pyridin-4-yl)pyrazine-2,3-diamine] | 5.5 nM
CN1CCC(N(C)c2nc(-c3ccncc3)cnc2N)CC1 [Example 18, N,N-Methyl-N,N-(1-methylpiperidin-4-yl)-6-(pyridin-4-yl)pyrazine-2,3-diamine] | 9.6 nM
CN1CCC(Oc2nc(-c3ccncc3)cnc2N)CC1 [Example 20, 3-(1-Methylpiperidin-4-yloxy)-5-(pyridin-4-yl)pyrazin-2-amine] | 5.6 nM
CN1CCCC(Oc2nc(-c3ccncc3)cnc2N)C1 (centres unmarked) [Example 21, 3-(1-Methylpiperidin-3-yloxy)-5-(pyridin-4-yl)pyrazin-2-amine] | 4.2 nM
COCCNc1ncc(-c2ccncc2)nc1N1CCCN(C)CC1 [Example 27, N-(2-Methoxyethyl)-3-(4-methyl-1,4-diazepan-1-yl)-5-(pyridin-4-yl)pyrazin-2-amine hydrochloride] | 5.2 nM
CN1CCCN(c2nc(-c3ccncc3)cnc2NCCO)CC1 [Example 28, 2-(3-(4-Methyl-1,4-diazepan-1-yl)-5-(pyridin-4-yl)pyrazin-2-ylamino)ethanol hydrochloride] | 3 nM
COCCN(C)c1ncc(-c2ccncc2)nc1N1CCCN(C)CC1 [Example 29, N-(2-Methoxyethyl)-N-methyl-3-(4-methyl-1,4-diazepan-1-yl)-5-(pyridin-4-yl)pyrazin-2-amine hydrochloride] | 45 nM
CN(C)c1ncc(-c2ccncc2)nc1NC1CCCNC1 (centres unmarked) [Example 34, N,N-(Piperidin-3-yl)-6-(pyridin-4-yl)pyrazine-2,3-diamine] | 3.1 nM
CN(C)CCCOc1nc(-c2ccncc2)cnc1N(C)C [Example 36, 3-(3-(Dimethylamino)propoxy)-N,N-dimethyl-5-(pyridin-4-yl)pyrazin-2-amine hydrochloride] | 11 nM

The next compounds have a lower IC50 than those just listed; values first:

IC50 | SMILES
2.4 nM | CNc1ncc(-c2ccncc2)nc1N1CCCN(C)CC1 [Example 25, N-Methyl-3-(4-methyl-1,4-diazepan-1-yl)-5-(pyridin-4-yl)pyrazin-2-amine hydrochloride]
2.1 nM | CNc1ncc(-c2ccncc2)nc1NC1CCCNC1 (centres unmarked) [Example 26, N^2-Methyl-N^3-(piperidin-3-yl)-5-(pyridin-4-yl)pyrazine-2,3-diamine hydrochloride]
1.7 nM | Nc1ncc(-c2ccncc2)nc1N1CCN(CCCO)CC1 [Example 24, 3-(4-(3-Amino-6-(pyridin-4-yl)pyrazin-2-yl)piperazin-1-yl)propan-1-ol]
1.7 nM | CN1CCCN(c2nc(-c3ccncc3)cnc2N(C)C)CC1 [Example 32, N,N-dimethyl-3-(4-methyl-1,4-diazepan-1-yl)-5-(pyridin-4-yl)pyrazin-2-amine hydrochloride]
1.1 nM | Nc1ncc(-c2ccncc2)nc1OC1CCNCC1 [Example 22, 3-(Piperidin-4-yloxy)-5-(pyridin-4-yl)pyrazin-2-amine]
0.95 nM | CN1CCCN(c2nc(-c3ccc4[nH]ncc4c3)cnc2N)CC1 [Example 7, 5-(1H-Indazol-5-yl)-3-(4-methyl-1,4-diazepan-1-yl)pyrazin-2-amine dihydrochloride]
0.94 nM | CN(C)c1ncc(-c2ccncc2)nc1OC1CCNCC1 [Example 35, N,N-Dimethyl-3-(piperidin-4-yloxy)-5-(pyridin-4-yl)pyrazin-2-amine hydrochloride]
0.82 nM | Nc1ncc(-c2ccncc2)nc1NC1CCNCC1 [Example 16, N,N-2-(Piperidin-4-yl)-6-(pyridin-4-yl)pyrazine-2,3-diamine]
0.68 nM | Nc1ncc(-c2ccncc2)nc1OC1CCCNC1 (centres unmarked) [Example 23, 3-(Piperidin-3-yloxy)-5-(pyridin-4-yl)pyrazin-2-amine]
0.54 nM | CN1CCCN(c2nc(-c3ccnc4[nH]ncc34)cnc2N(C)C)CC1 [Example 33, N,N-Dimethyl-3-(4-methyl-1,4-diazepan-1-yl)-5-(1H-pyrazolo[3,4-b]pyridin-4-yl)pyrazin-2-amine dihydrochloride]
0.53 nM | CN1CCCN(c2nc(-c3ccnc4[nH]ccc34)cnc2N)CC1 [Example 4, 3-(4-Methyl-1,4-diazepan-1-yl)-5-(1H-pyrrolo[2,3-b]pyridin-4-yl)pyrazin-2-amine]
0.3 nM | CN(C)c1ncc(-c2ccncc2)nc1N1CCN(CCO)CC1 [Example 30, 2-(4-(3-(Dimethylamino)-6-(pyridin-4-yl)pyrazin-2-yl)piperazin-1-yl)ethanol hydrochloride]
0.21 nM | Nc1ncc(-c2ccncc2)nc1NC1CCCNC1 (centres unmarked) [Example 17, N,N-(Piperidin-3-yl)-6-(pyridin-4-yl)pyrazine-2,3-diamine]
0.064 nM | Nc1ncc(-c2ccncc2)nc1NC1CCNC1 (centres unmarked) [Example 19, 6-(Pyridin-4-yl)-N^2-(pyrrolidin-3-yl)pyrazine-2,3-diamine]
0.053 nM | CN(C)c1ncc(-c2ccnc3[nH]ccc23)nc1N1CCN(CCO)CC1 [Example 31, 2-(4-(3-(Dimethylamino)-6-(1H-pyrrolo[2,3-b]pyridin-4-yl)pyrazin-2-yl)piperazin-1-yl)ethanol]
